Among the data in ChEMBL document CHEMBL3217693, “Synthesis and biological evaluation of 7-arylindoline-1-benzenesulfonamides as a novel class of potent anticancer agents” (Medchemcomm, 2010) are IC50 and inhibition values, retold here.

Experiment [1] can be described thus: Antiproliferative activity against human H460 cells assessed as inhibition of cell growth after 72 hrs by methylene blue dye assay. It is filed as functional, cell-based. The settings on record: NCI-H460, 72 h.
Experiment [2] in a line: Antiproliferative activity against human KB-VIN10 cells overexpressing P-gp 170/MDR assessed as inhibition of cell growth after 72 hrs by methylene blue dye assay. Type of experiment: functional, cell-based. The settings on record: KB-VIN10, 72 h.
The test system of a further experiment is KB. The experiment is described as follows: Antiproliferative activity against human KB cells assessed as inhibition of cell growth after 72 hrs by methylene blue dye assay. It is filed as functional, cell-based.
Another experiment deals with HT-29. Description: Antiproliferative activity against human HT-29 cells assessed as inhibition of cell growth after 72 hrs by methylene blue dye assay. Type of experiment: functional, cell-based. The note with it: HT-29, 72 h.
Experiment [3] in a line: Antiproliferative activity against human MKN45 cells assessed as inhibition of cell growth after 72 hrs by methylene blue dye assay. It is filed as functional, cell-based. The note with it: MKN-45, 72 h.
Experiment [4] addresses Tubulin (Bos taurus, UniProt Q6B856+Q862L2+Q862F3). The experiment is described as follows: Inhibition of bovine brain microtubule-associated protein rich tubulin polymerization by turbidimetric assay.
The target of experiment [5] is T1, Tubulin (UniProt P68371+Q9H4B7+P0DPH7+P68366+Q13509+Q71U36+P04350+Q3ZCM7+P07437+P68363+Q9BQE3+Q6PEY2+Q13885+Q9BVA1+Q9BUF5). The experiment is described as follows: Displacement of [3H]colchicine from long-chain biotin-labeled tubulin (unknown origin) at 5 uM after 2 hrs by competition binding scintillation proximity assay. It is filed as protein-complex assay. The note with it: Homo sapiens. In general terms: In a radioligand displacement assay an active substance lowers the binding of a labelled ligand.

Experiment [6] deals with T1, Tubulin. Description: Displacement of [3H]colchicine from long-chain biotin-labeled tubulin (unknown origin) at 1 uM after 2 hrs by competition binding scintillation proximity assay. Type of experiment: protein-complex assay. The settings on record: Homo sapiens.

Take `COc1ccc(S(=O)(=O)N2CCc3cccc(-c4ccc(F)nc4)c32)cc1`: the IC50 (usually the point on the concentration scale where inhibition reaches its midpoint) in experiment [1] came to 135 nM; in experiment [2], 151 nM; in the experiment on KB it was 143 nM; with HT-29, 108 nM; in experiment [3] it was 145 nM.
Consider `COc1ccc(S(=O)(=O)N2CCc3cccc(-c4c(F)c(F)c(F)c(F)c4F)c32)cc1`, for which the IC50 in experiment [1] was 4760 nM; in experiment [2], 4630 nM; with KB it was 4040 nM; in the experiment with HT-29 it was 3900 nM; in experiment [3], 1780 nM.
Taken in the same sequence, the figures for `COc1ccc(S(=O)(=O)N2CCc3cccc(-c4cccs4)c32)cc1` were 229 nM, 251 nM, 214 nM, 200 nM and 165 nM.
As to `COc1ccc(S(=O)(=O)N2CCc3cccc(-c4ccc(F)c(F)c4)c32)cc1`, the 50% inhibitory concentration (IC50) in experiment [1] is 46 nM; in experiment [2] it was 46 nM; against Tubulin [4], 2300 nM; in the experiment with KB, 45 nM; in the experiment on HT-29 it was 57 nM; in experiment [3] it was 55.5 nM. Further, the inhibition – broadly, the relative decrease from the control value, in per cent – was determined as 72% at Tubulin [5] and 52% at Tubulin [6].
Turning to `COc1ccc(-c2cccc3c2N(S(=O)(=O)c2ccc(OC)cc2)CC3)cc1`, the IC50 was determined as 302 nM in experiment [1]; 352 nM in experiment [2]; 337 nM in the experiment with KB; 277 nM in the experiment with HT-29; 211 nM in experiment [3].
On to `COc1ccc(S(=O)(=O)N2CCc3cccc(-c4ccc(F)cc4)c32)cc1`, for which the IC50 is 95.5 nM in experiment [1]; 94.6 nM in experiment [2]; 2500 nM against Tubulin [4]; 86 nM with KB; 85.5 nM in the experiment with HT-29; 79 nM in experiment [3]. The inhibition at Tubulin [5] was found to be 73%; on Tubulin [6] it was 59%.
With `COc1ccc(S(=O)(=O)N2CCc3cccc(-c4cccc(F)c4)c32)cc1`, the IC50 in experiment [1] stood at 166 nM; in experiment [2], 92.4 nM; with KB, 98.5 nM; in the experiment with HT-29, 119 nM; in experiment [3], 84.7 nM.
On the same counts, the results for `COc1ccc(S(=O)(=O)N2CCc3cccc(-c4cc(OC)c(OC)c(OC)c4)c32)cc1` are 6340 nM, 4670 nM, 3690 nM, 5100 nM and 1080 nM.
On the same counts, the results for `COc1ccc(S(=O)(=O)N2CCc3cccc(-c4ccccc4)c32)cc1` are 212 nM, 107 nM, 120 nM, 96.5 nM and 117 nM.
Taken in the same sequence, the figures for `COc1ccc(S(=O)(=O)N2CCc3cccc(-c4ccc(N)cc4)c32)cc1` were 288 nM, 262 nM, 249 nM, 300 nM and 162 nM.
For `COc1ccc(S(=O)(=O)N2CCc3cccc(-c4ccco4)c32)cc1`, the IC50 in experiment [1] amounted to 94.5 nM; in experiment [2], 79.2 nM; at Tubulin [4], 2600 nM; with KB, 82 nM; with HT-29 it was 62.5 nM; in experiment [3], 42 nM. Moreover, the inhibition on Tubulin [5] turned out to be 68%; at Tubulin [6], 43%.
For `COc1ccc(S(=O)(=O)N2CCc3cccc(-c4ccncc4)c32)cc1`, the IC50 in experiment [1] was determined as 101 nM; in experiment [2], 106 nM; against Tubulin [4], 2200 nM; with KB, 96 nM; in the experiment on HT-29 it was 87.5 nM; in experiment [3], 69.5 nM. For the same compound, the inhibition on Tubulin [5] came out at 72%; at Tubulin [6], 54%.
`COc1ccc(S(=O)(=O)N2CCc3cccc(-c4ccc(O)cc4)c32)cc1`: the IC50 in experiment [1] is 114 nM; in experiment [2] it was 123 nM; with KB, 129 nM; with HT-29, 133 nM; in experiment [3], 82.6 nM.
In the case of `COc1ccc(S(=O)(=O)N2CCc3cccc(-c4ccc([N+](=O)[O-])cc4)c32)cc1`, the IC50 in experiment [1] turned out to be 53.1 nM; in experiment [2] it was 51.3 nM; against Tubulin [4], 1700 nM; in the experiment with KB, 52.5 nM; in the experiment on HT-29 it was 51.8 nM; in experiment [3], 34 nM. The values for the inhibition on Tubulin [5] and at Tubulin [6] were 74% and 56%, respectively.
On to `COc1ccc(S(=O)(=O)N2CCc3cccc(-c4ccc(N(C)C)cc4)c32)cc1`, for which the IC50 is 556 nM in experiment [1]; 553 nM in experiment [2]; 538 nM in the experiment on KB; 467 nM with HT-29; 237 nM in experiment [3].
On the same counts, the results for `COc1ccc(S(=O)(=O)N2CCc3cccc(-c4cccnc4)c32)cc1` are 89.6 nM, 84.5 nM, 95.9 nM, 76.3 nM and 68.5 nM.
Regarding `COc1ccc(S(=O)(=O)N2CCc3cccc(-c4ccc(C#N)cc4)c32)cc1`, the IC50 worked out at 29.5 nM in experiment [1]; 29.2 nM in experiment [2]; 1500 nM on Tubulin [4]; 31.1 nM in the experiment on KB; 24.2 nM in the experiment on HT-29; 17.2 nM in experiment [3]. The inhibition at Tubulin [5] was 92%; at Tubulin [6], 81%.
Turning to `COc1cc2c(c(OC)c1OC)-c1ccc(OC)c(=O)cc1[C@@H](NC(C)=O)CC2` [COLCHICINE], the IC50 in experiment [2] came out at 121 nM.
